Experiments:
BDNF^Met/Met mice = experiment: Novelty-induced hypophagia after long-term fluoxetine in adult mice; assay type: in vivo; settings: adult P60 BDNF^Met/Met mice; fluoxetine orally 18 mg/kg of body weight per day for 21 days
Experimental: A common treatment for depression and anxiety disorders in humans is administering serotonin reuptake inhibitors (SSRI's), for which one postulated mechanism of action involves increasing BDNF levels (R. S. Duman, L. M. Monteggia, Biol Psychiatry 59, 1116 (Jun. 15, 2006)). Adult P60 BDNF^Met/Met mice were treated orally with fluoxetine (18 mg/kg of body weight per day) or vehicle for 21 days before assessment in novelty-induced hypophagia. In this conflict test, mice are trained to approach a reward (sweetened milk) in their home cage and then placed in a novel brightly lit cage. The latency to approach and drink the sweetened milk is a measure of the anxiety-related behavior associated with this task (S. C. Dulawa, K. A. Holick, B. Gundersen, R. Hen, Neuropsychopharmacology 29, 1321 (July, 2004)).

mice = settings: fluoxetine treatment at P4-P21; Ansorge et al. 2004; cited from earlier work
P60 BDNF^Met/Met mice = experiment: Two anxiety tests, response to chronic fluoxetine; assay type: in vivo
Excerpt: It was chosen to continue to use fluoxetine as it is the prototypic SSRI that has been established to increase BDNF levels, and for which a significant amount of clinical data on response to affective disorders.

wildtype mice = experiment: Elevated plus maze at P90 after early life fluoxetine (P21-P40); assay type: in vivo; settings: fluoxetine 18 mg/kg per day via drinking water P21-P40, tested at P90
Excerpt: (§1) FIG. 9. Anxiety-related behavior after early life flouxetine in BDNF Val66Met mice in the elevated plus maze test. (A). Percentage time spent in the open arm (B) and percentage of open arm entries in the plus maze, as well as (C) total distance traveled in wildtype) WT and BDNF^Met/Met (Met/Met) mice treated with water (H2O) or with flouxetine (FLX) from P21-P40. All results are presented as a mean±SEM determined from analysis of 5 mice/genotype (*p<0.05), Student's t test.
(§2) The feasibility of these timed pharmacological studies was first assessed. To BDNFMet mice, chronic fluoxetine (18 mg/kg per day) was administered via the drinking water from P21 (post-weaning)-P40 (adolescence) (FIG. 8) for a duration of time established to produce increased BDNF levels and anti-anxiety effects in adult mice [Dulawa, S. C., Holick, K. A., Gundersen, B., and Hen, R. (2004). Effects of chronic fluoxetine in animal models of anxiety and depression. Neuropsychopharmacology 29, 1321-1330; Duman, R. S., and Monteggia, L. M. (2006). A neurotrophic model for stress-related mood disorders. Biol Psychiatry 59, 1116-1127].
(§3) Early-life blockade of the 5-HT transporter alters emotional behavior in adult mice. Science 306, 879-881], which was not observed by this P21-P40 timed treatment.

BDNF^Met mice = experiment: as above; assay type: in vivo; settings: fluoxetine 18 mg/kg per day via drinking water P21-P40, tested at P90
Excerpt: as §1, §2, §3

For `CNCCC(Oc1ccc(C(F)(F)F)cc1)c1ccccc1` (centres unmarked) [fluoxetine], the “latency to drink in the novel cage” value (BDNF^Met/Met mice) is given as “did not significantly decrease”, the anxiety-related behaviors (mice) is given as “increased anxiety-related behaviors” and the “response to chronic fluoxetine as measured by two anxiety tests” value (P60 BDNF^Met/Met mice) is given as “decreased response”. For the same compound, the “anxiety-related behaviors in the elevated plus maze test” value (wildtype mice) was “No effects were observed” and the “anxiety-related behavior in the elevated plus maze test” value (BDNF^Met mice) was “rescue of altered anxiety-related behavior”.

Source: patent publication US8853279B2, “Method for determining sensitivity or resistance to compounds that activate the brain serotonin system” (Cornell University, priority 2008, dated 2014)
